Test results: US11980594B2, “Composition and method for treating a drug-resistant cancer” (NOVELWISE PHARMACEUTICAL CORPORATION, priority 2021, dated 2024)
Where two headings read alike, the source gives them in different places.

Assays:
[1] = statement from literature; cited from earlier work
MGMT = assay: Western blot of MGMT in GBM-R cells; type: cell-based, human; conditions: A172-R and U87MG-R cells; 50 μM TMZ without or with 5 and 10 μM BMX; 48 hrs; FIG. 5B, 5C
Procedure: The cells were collected and lysed in RIPA lysis buffer (EMD Millipore Billerica, Mass., USA, 10×RIPA buffer) containing a protease inhibitor. Protein concentration was determined using a protein assay kit (Bio-Rad Laboratories, Hercules, Calif., USA). The SDS loading buffer was mixed with the protein samples. Proteins (20 μg/lane) were separated using 8%-12% SDS-PAGE and transferred to a PVDF membrane, which was blocked with 5% bovine serum albumin at room temperature for 1 hr in tris-buffered saline (TBS)-Tween 20 (0.5%; TBS-T), incubated with primary antibodies overnight at […], and then incubated with horseradish peroxidase (HRP)-conjugated secondary antibodies at room temperature for 1 hr. After washing thoroughly with TBS-T, the HRP signals were detected with a chemical HRP substrate. Signal of each target protein was visualized by incubation with an enhanced chemiluminescent reagent and exposure to X-ray film.

HCT116 cells = assay: CRC cell proliferation assay (CCK8), HCT116; type: cell-based; conditions: Homo sapiens
Procedure: (§1) Three CRC cell lines HT29, HCT116 and RKO were used in this study. The American Type Culture Collection (ATCC; Manassas, Va., USA) provided human CRC cell lines HT29 (ATCC HTB-38; mutant TP53, p.R273H; APC frame shift, p. E1554fs; wild type β-catenin), HCT116 (ATCC CCL-247; wild type TP53; wild type APC; deletion β-catenin, p. S45del) and RKO (ATCC CRL-2577; wild type TP53; wild type APC; wild type β-catenin). Three CRC cells lines as listed above were cultured in adherent culture condition, maintained at 37° C. inside the cell incubation containing 5% CO2. The two cell lines of HCT-116 and HT-29 cells were cultured in McCoy's 5A medium with supplemented 10% fetal bovine serum (Gibco; Thermo Fischer Scientific, Grand Island, N.Y., USA)), 1% penicillin and 1% streptomycin. RKO cell was cultured in MEM medium with supplemented 10% FBS, 1% penicillin, 1% streptomycin and 1% sodium pyruvate. The cell cultures were passaged by trypsinization every three days. BM-BMX (BMX), (E)-2-(4-Methoxybenzyloxy)-3-prenyl-4-methoxy-N-hydroxycinamide, was provided by Nature Wise Biotech & Medicals Corporation (Taipei, Taiwan).
(§2) We plated 4000 CRC cells per well in 96-well plates and allowed them to adhere overnight. To validate cell line responsiveness to BMX and TMZ monotherapy, the cells were treated with different doses of BMX or TMZ for 24, 48, and 72 hrs. To confirm cell responsiveness to the BMX-TMZ combination, cells were either treated with different doses of TMZ ([…]) with or without BMX (5 μM) for 24, 48, and 72 hrs or with different doses of BMX (0-10 μM) with or without TMZ (50 μM) for 24, 48, and 72 hrs. Following treatment, the absorption value was measured using a CCK8 kit (Targetmol, Shanghai, China) at the indicated time points. The results are reported as the mean±standard deviation of at least three replicates.

U87MG cells = assay: Cell proliferation/viability assay (CCK8 kit; text says MTT), U87MG; type: cell-based; conditions: Homo sapiens, U-87 MG, single agent, FIG. 2B/2C, read-out: IC50 values (alone)
Excerpt: (§3) Four GBM cell lines U87, U87R, A172, and A172R were used in this study. The American Type Culture Collection (ATCC; Manassas, Va., USA) provided human GBM cell lines U87-MG (ATCC HTB-14; GBM of unknown origin) and A172 (ATCC CRL-1620; ATCC). U87R and A172R cells were obtained from Dr. Tsung-I Hsu and Dr. Jian-Ying Chung (The Ph.D. Program for Neural Regenerative Medicine, College of Medical Science and Technology, Taipei Medical University, Taipei, Taiwan). These cells were maintained in Dulbecco's modified Eagle medium (DMEM) with 10% fetal bovine serum (FBS) and 50 μM TMZ for at least 60 days. TMZ resistance in U87R and A172R cells was confirmed using the colony formation assay (FIG. 11). Cells were cultured in DMEM supplemented with 10% FBS, 100 U/mL penicillin, […] streptomycin (all from Gibco; Thermo Fisher Scientific, Waltham, Mass., USA) and maintained in a humidified incubator at 37° C. and 5% CO2. NBM-BMX (BMX), (E)-2-(4-Methoxybenzyloxy)-3-prenyl-4-methoxy-N-hydroxycinamide, was provided by NatureWise Biotech & Medicals Corporation (Taipei, Taiwan).
(§4) We plated 3000 GBM cells per well in 96-well plates and allowed them to adhere overnight. […] Following treatment, the absorption value was measured using a CCK8 kit (Targetmol, Shanghai, China) at the indicated time points. […]

HT29 cells = assay: CRC cell proliferation assay (CCK8), HT29; type: cell-based; conditions: Homo sapiens
Procedure: as §1, §2

U87MG-R cells = assay: Cell proliferation/viability assay (CCK8 kit; text says MTT), U87MG-R; type: cell-based; conditions: Homo sapiens; U87MG-R cells (TMZ-resistant); single agent; FIG. 2B/2C; read-out: IC50 values (alone)
Excerpt: as §3, §4

A172-R cells = assay: Cell proliferation/viability assay (CCK8 kit; text says MTT), A172-R; type: cell-based; conditions: Homo sapiens; A172-R cells (TMZ-resistant); single agent; FIG. 2B/2C; read-out: IC50 values (alone)
Excerpt: as §3, §4

A172 cells = assay: Cell proliferation/viability assay (CCK8 kit; text says MTT), A172; type: cell-based; conditions: Homo sapiens, A 172, single agent, FIG. 2B/2C, read-out: IC50 values (alone)
Excerpt: as §3, §4

COc1ccc(COc2c(/C=C/C(=O)NO)ccc(OC)c2CC=C(C)C)cc1 [BMX, (E)-2-(4-Methoxybenzyloxy)-3-prenyl-4-methoxy-N-hydroxycinamide]
blood-brain barrier penetration [1]: ability to cross the blood-brain barrier | MGMT expression (MGMT): moderately decrease MGMT levels | IC50 (HCT116 cells; HCT-116, 24 h, BMX alone, 24 hrs, read-out: IC50 of BMX): 24.8 ± 2.5 µM | IC50 (HCT116 cells; HCT-116, 24 h, TMZ 50 μM combined with different concentrations of BMX, 24 hrs, read-out: IC50 of BMZ): > 10 µM | IC50 (HCT116 cells; HCT-116, 48 h, BMX alone, 48 hrs, read-out: IC50 of BMX): 7.7 ± 0.3 µM | IC50 (HCT116 cells; HCT-116, 48 h, TMZ 50 μM combined with different concentrations of BMX, 48 hrs, read-out: IC50 of BMZ): 3.2 ± 0.3 µM | IC50 (HCT116 cells; HCT-116, 72 h, BMX alone, 72 hrs, read-out: IC50 of BMX): 1.5 ± 0.3 µM | IC50 (HCT116 cells; HCT-116, 72 h, TMZ 50 μM combined with different concentrations of BMX, 72 hrs, read-out: IC50 of BMZ): 0.9 ± 0.1 µM | IC50 (U87MG cells): 29.8 ± 2.32 µM | IC50 (HT29 cells; HT-29, 24 h, BMX alone, 24 hrs, read-out: IC50 of BMX): 42.6 ± 2.4 µM | IC50 (HT29 cells; HT-29, 24 h, TMZ 50 μM combined with different concentrations of BMX, 24 hrs, read-out: IC50 of BMZ): > 10 µM | IC50 (HT29 cells; HT-29, 48 h, BMX alone, 48 hrs, read-out: IC50 of BMX): 9.9 ± 0.5 µM | IC50 (HT29 cells; HT-29, 48 h, TMZ 50 μM combined with different concentrations of BMX, 48 hrs, read-out: IC50 of BMZ): 9.1 ± 0.2 µM | IC50 (HT29 cells; HT-29, 72 h, BMX alone, 72 hrs, read-out: IC50 of BMX): 2.9 ± 0.2 µM | IC50 (HT29 cells; HT-29, 72 h, TMZ 50 μM combined with different concentrations of BMX, 72 hrs, read-out: IC50 of BMZ): 2.2 ± 0.1 µM | IC50 (U87MG-R cells): > 68.1 µM | IC50 (A172-R cells): > 52.6 µM | IC50 (A172 cells): 21 ± 2.34 µM

Cn1nnc2c(C(N)=O)ncn2c1=O [TMZ, Temozolomide, reference compound]
blood-brain barrier penetration [1]: good penetration of the blood-brain barrier | MGMT expression (MGMT): moderately suppress MGMT expression | IC50 (HCT116 cells; HCT-116, 24 h, BMX 5 μM combined with different doses of TMZ, 24 hrs, read-out: IC50 of TMZ): > 400 µM | IC50 (HCT116 cells; HCT-116, 24 h, TMZ alone, 24 hrs, read-out: IC50 of TMZ): > 1000 µM | IC50 (HCT116 cells; HCT-116, 48 h, BMX 5 μM combined with different doses of TMZ, 48 hrs, read-out: IC50 of TMZ): 41.6 ± 2.4 µM | IC50 (HCT116 cells; HCT-116, 48 h, TMZ alone, 48 hrs, read-out: IC50 of TMZ): 515 ± 21.6 µM | IC50 (HCT116 cells; HCT-116, 72 h, TMZ alone, 72 hrs, read-out: IC50 of TMZ): 192 ± 14.7 µM | IC50 (U87MG cells): 81 ± 1.68 µM | IC50 (HT29 cells; HT-29, 24 h, BMX 5 μM combined with different doses of TMZ, 24 hrs, read-out: IC50 of TMZ): > 400 µM | IC50 (HT29 cells; HT-29, 24 h, TMZ alone, 24 hrs, read-out: IC50 of TMZ): > 1000 µM | IC50 (HT29 cells; HT-29, 48 h, BMX 5 μM combined with different doses of TMZ, 48 hrs, read-out: IC50 of TMZ): 128 ± 18.3 µM | IC50 (HT29 cells; HT-29, 48 h, TMZ alone, 48 hrs, read-out: IC50 of TMZ): 931 ± 47.7 µM | IC50 (HT29 cells; HT-29, 72 h, TMZ alone, 72 hrs, read-out: IC50 of TMZ): 258 ± 20.5 µM | IC50 (U87MG-R cells): 303 ± 15.2 µM | IC50 (A172-R cells): 595 ± 23.4 µM | IC50 (A172 cells): 73.5 ± 3.65 µM
